Assay results: ChEMBL document CHEMBL1201862, “PubChem BioAssay data set” (2004)
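Cultured in 96-well plates, cells were exposed to test compound for 48 hours across five concentrations. GI50 is the concentration that inhibits growth by half.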 The source made the active and inactive calls. Rule as the data show it: active = GI50 up to about 1.1 µM and inactive = higher.

Columns and labels:
Test in all cases: inhibition of tumour cell growth, NCI panel, 48 h
CAKI-1 = tested on: CAKI-1
HCC 2998 = tested on: HCC 2998
HOP-62 = tested on: HOP-62
KM12 = tested on: KM12
LOX IMVI = tested on: LOX IMVI
MOLT-4 = tested on: MOLT-4
NCI-H23 = tested on: NCI-H23
OVCAR-3 = tested on: OVCAR-3
OVCAR-5 = tested on: OVCAR-5
OVCAR-8 = tested on: OVCAR-8
RPMI-8226 = tested on: RPMI-8226
SF-268 = tested on: SF-268
SK-MEL-5 = tested on: SK-MEL-5
SN12C = tested on: SN12C
UACC-257 = tested on: UACC-257
UO-31 = tested on: UO-31
ACHN = tested on: ACHN
TK-10 = tested on: TK-10
A498 = tested on: A498

Measured: GI50

COc1ccc(/C=C/C(=O)CC(=O)/C=C/c2ccc(OC)cc2)cc1
inactive: CAKI-1 62.4 µM | HCC 2998 > 100 µM | HOP-62 > 100 µM | KM12 > 100 µM | LOX IMVI 1.4 µM | MOLT-4 28 µM | NCI-H23 8.53 µM | OVCAR-3 23.1 µM | OVCAR-5 46.2 µM | OVCAR-8 21.4 µM | RPMI-8226 38.1 µM | SF-268 46.3 µM | SK-MEL-5 67.6 µM | SN12C 61.5 µM | UACC-257 > 100 µM | UO-31 34.8 µM

CCOc1cc2c[n+](C)c3c4cc(OC)c(OC)cc4ccc3c2cc1OC
inactive: ACHN > 100 µM | CAKI-1 > 100 µM | HCC 2998 > 100 µM | HOP-62 > 100 µM | KM12 > 100 µM | LOX IMVI > 100 µM | MOLT-4 > 100 µM | NCI-H23 > 100 µM | OVCAR-3 > 100 µM | OVCAR-5 > 100 µM | OVCAR-8 17.7 µM | RPMI-8226 > 100 µM | SF-268 > 100 µM | SK-MEL-5 > 100 µM | SN12C > 100 µM | TK-10 > 100 µM | UACC-257 > 100 µM | UO-31 > 100 µM

Cc1cccc(C)c1NC(=O)C(=O)CC(=O)c1cccc([N+](=O)[O-])c1
inactive: A498 > 100 µM | ACHN > 100 µM | CAKI-1 > 100 µM | HOP-62 > 100 µM | KM12 > 100 µM | MOLT-4 > 100 µM | NCI-H23 > 100 µM | OVCAR-3 > 100 µM | OVCAR-5 > 100 µM | OVCAR-8 > 100 µM | RPMI-8226 > 100 µM | SF-268 > 100 µM | SK-MEL-5 > 100 µM | SN12C > 100 µM | TK-10 > 100 µM | UACC-257 > 100 µM | UO-31 > 100 µM

COc1ccc(C2c3cc4c(cc3OC(O)(CO)C2C(=O)O)OCO4)c(OC)c1OC.COc1ccc(C2c3cc4c(cc3OC3(O)COC(=O)C23)OCO4)c(OC)c1OC (stereo not drawn)
inactive: ACHN > 100 µM | CAKI-1 65.8 µM | HOP-62 > 100 µM | LOX IMVI > 100 µM | MOLT-4 > 100 µM | NCI-H23 > 100 µM | OVCAR-3 > 100 µM | OVCAR-8 > 100 µM | RPMI-8226 > 100 µM | SK-MEL-5 > 100 µM | SN12C > 100 µM | TK-10 > 100 µM | UACC-257 > 100 µM | UO-31 > 100 µM

COc1ccc([C@@H]2OC(=O)C3C2C(=O)O[C@H]3c2ccc(OC)c(OC)c2)cc1OC (stereo partly drawn)
inactive: A498 > 100 µM | ACHN > 100 µM | HCC 2998 > 100 µM | HOP-62 > 100 µM | KM12 > 100 µM | LOX IMVI > 100 µM | MOLT-4 > 100 µM | NCI-H23 > 100 µM | OVCAR-3 > 100 µM | OVCAR-8 > 100 µM | RPMI-8226 > 100 µM | SF-268 > 100 µM | SK-MEL-5 > 100 µM | SN12C > 100 µM | TK-10 > 100 µM | UACC-257 > 100 µM | UO-31 > 100 µM

Cc1ns/c(=N\C(=S)N(C)C)n1C
inactive: A498 > 100 µM | ACHN > 100 µM | CAKI-1 > 100 µM | HCC 2998 > 100 µM | HOP-62 > 100 µM | KM12 > 100 µM | MOLT-4 > 100 µM | NCI-H23 > 100 µM | OVCAR-5 > 100 µM | OVCAR-8 > 100 µM | RPMI-8226 > 100 µM | SF-268 > 100 µM | SK-MEL-5 > 100 µM | SN12C > 100 µM | TK-10 > 100 µM | UACC-257 > 100 µM | UO-31 > 100 µM

CC(C)[C@H](NC(=O)OCc1ccccc1)C(=O)N[C@H](/C=C/C(=O)OC(C)(C)C)CO
inactive: A498 > 100 µM | ACHN > 100 µM | CAKI-1 > 100 µM | HCC 2998 > 100 µM | HOP-62 > 100 µM | KM12 > 100 µM | LOX IMVI > 100 µM | MOLT-4 > 100 µM | NCI-H23 > 100 µM | OVCAR-3 > 100 µM | OVCAR-5 > 100 µM | OVCAR-8 > 100 µM | SF-268 > 100 µM | SK-MEL-5 > 100 µM | SN12C > 100 µM | TK-10 > 100 µM | UACC-257 > 100 µM

CCOC(=O)C1=C(C(=O)OCC)C2c3ccccc3C=CN2C(C(=O)OCC)=C(SC)S1 (stereo not drawn)
inactive: ACHN > 100 µM | CAKI-1 > 100 µM | HCC 2998 > 100 µM | HOP-62 > 100 µM | LOX IMVI 97.3 µM | MOLT-4 21.6 µM | NCI-H23 87.1 µM | OVCAR-3 96.2 µM | OVCAR-5 > 100 µM | OVCAR-8 > 100 µM | RPMI-8226 17.8 µM | SF-268 > 100 µM | SK-MEL-5 32.4 µM | SN12C 98.4 µM | TK-10 > 100 µM | UACC-257 42.5 µM | UO-31 74.1 µM
